Source: a melting point compilation (Tetko et al.; mined from patent text by program, amines drawn as free bases though some values may be those of a salt)

Compared with Cc1c(Cc2cccc(C(F)(F)F)c2)oc2cccc(-c3cccc(C(=O)NCCC#N)c3)c12, COc1ccc(C(=O)Nc2ccc(F)c(F)c2)cc1Nc1cccc(C(F)(F)F)c1 is higher in melting point: 108 to 109 °C for the first, 166 to 169 °C for the second.

First: CC(=O)NC1(c2ccc(C(C)N3CCN(c4ncccn4)CC3)cc2)CC1 (stereo not given)
Second: O=C(N[C@H](CC1CCCCC1)CN1CCN(c2ncccn2)CC1)C1CCCCC1
The melting point of the first is higher: 124 to 125 °C for the first, 121 to 123 °C for the second.

First: COC(=O)c1cccc(-c2nc(COc3ccc(COc4nn(-c5ccccc5)cc4/C=C/c4nc(N5CCOCC5)sc4C)cc3OC)c(C)o2)c1
Second: CCOC(=O)N[C@@H]1CCc2c(ccc(OCc3ccccc3)c2C(=O)OC)[C@H]1O (relative stereo)
The melting point of the first is higher: 183 to 184 °C for the first, 147 to 148 °C for the second.

Compared with Cc1ccc(CCC(=O)NC(C)c2ccc(NS(C)(=O)=O)c(F)c2)cc1C (stereo not given), COc1ccc(NN=C(Sc2c(C)cccc2C)C(C)=O)cc1 is lower in melting point: 176 to 177 °C for the first, 107 to 109 °C for the second.

First: COc1ccc(Cn2c(=O)[nH]c3ccc(Cl)cc3c2=O)cc1
Second: COc1ccc(CNc2cc3c(Nc4ccc(F)c(Br)c4)ncnc3cn2)cc1
The melting point of the first is higher: 252 to 253 °C for the first, 181 to 184 °C for the second.

First: COc1cc(-c2ccsc2)cc2oc(=O)c(C)c(C)c12
Second: CC(=O)COc1ccc2c(C)cc(=O)oc2c1
The melting point of the first is higher: 158 to 160 °C for the first, 146 to 148 °C for the second.

First: CC(Br)C(=O)c1cc2c(Cl)cccc2s1 (stereo not given)
Second: COC(=O)c1ccc(Cl)c(NN)c1
The melting point of the first is lower: 104 to 106 °C for the first, 218 to 220 °C for the second.

First: CCCCC1OC(=O)c2cc(NC(=O)CCC(=O)O)ccc21 (stereo not given)
Second: CCCCCNc1cccc2c1C(=O)N(C1CCC(=O)NC1=O)C2=O (stereo not given)
The melting point of the first is higher: 163 to 165 °C for the first, 141 to 143 °C for the second.

First: CCOC(=O)c1cc2c(cn1)[nH]c1ccc([N+](=O)[O-])cc12
Second: CCOC(=O)COc1ccc(-c2nc3ncccc3[nH]2)c(O)c1
The melting point of the first is higher: 320 to 325 °C for the first, 198 °C for the second.

First: CN(NC(=O)c1ccc(C#N)cc1)C(=O)OC(C)(C)C
Second: COCC1(C)CCOc2ccc(C#Cc3ccc(C(=O)O)cc3)cc21 (stereo not given)
The melting point of the first is lower: 179 to 181 °C for the first, 202 to 203 °C for the second.

First: CCCCCC(O)CCn1[nH]c(=O)n(C)c1=O (stereo not given)
Second: CCCCCCCCc1ccc(C(O)CCCCCC(=O)OC)cc1 (stereo not given)
The melting point of the first is higher: 85 to 88 °C for the first, 49 to 50 °C for the second.

Compared with COC(=O)C=C1CCC(c2ccc(O)cc2)CC1 (stereo not given), O=C(c1ccccc1C(c1ccc(O)cc1)c1ccc(O)cc1)N1CCSCC1 is higher in melting point: 151 to 152 °C for the first, 259 to 261 °C for the second.

First: O=C(/C=C/C=C/c1cccc2ccccc12)NCCCCCC(=O)NO
Second: Cc1cc(C=O)c(OCCCCCCc2ccccc2)c(C=O)c1
The melting point of the first is higher: 143 to 145 °C for the first, 64 °C for the second.

First: N#CC(C#N)=C1N(CCCN2CCCCC2)CCCN1CCCN1CCCCC1
Second: CN1CCN(CC(=O)Nc2ccc3c(c2)C(=O)c2cc(NC(=O)CN4CCN(C)CC4)ccc2C3=O)CC1
The melting point of the first is lower: 88 to 90 °C for the first, 173 °C for the second.

First: CC(C)(C)OC(=O)N1C[C@@H]2OCc3c(-c4cccc(F)c4)nnn3[C@H]2C1
Second: CC(C)(C)OC(=O)NCc1nc2c(C(F)(F)F)cccc2c(=O)o1
The melting point of the first is higher: 249 to 250 °C for the first, 176 °C for the second.

First: Cc1ccccc1CC1=NNC(=O)CC1
Second: c1ccc2c(N3CCNCC3)nccc2c1
The melting point of the first is higher: 123 to 125 °C for the first, 54 to 56 °C for the second.

CCCCc1oc2ccc(C(=O)OC(C)C)cc2c1C(=O)c1ccc(OS(=O)(=O)C(F)(F)F)cc1 and Nc1ccc(C(=O)OCCOC(=O)C[C@@H](C(=O)O)n2c3ccccc3c3ccccc32)cc1 cannot be ordered by melting point: 100 to 101 °C for the first, 100 °C for the second.

Compared with Cc1noc(NS(=O)(=O)c2ccccc2-c2ccc(-c3ncco3)cc2CN2Cc3ccccc3C2=O)c1C, Cc1noc(NS(=O)(=O)c2ccc(-c3ccccc3)cc2)c1Br is lower in melting point: 135 to 142 °C for the first, 133 to 135 °C for the second.

First: COc1ccc(-c2cc(C(F)F)nn2-c2ccc(S(N)(=O)=O)cc2)cc1F
Second: NS(=O)(=O)c1cccc(-c2noc(-c3cnn4c(C(F)(F)F)cc(-c5ccc(C(F)(F)F)c(OCC(F)(F)F)c5)nc34)n2)c1
The melting point of the first is lower: 159 to 161 °C for the first, 250 °C for the second.

Compared with OC1(C2CCN(Cc3ccccc3)CC2)c2ccsc2CCn2ccnc21 (stereo not given), Clc1ccc2c(c1)N=C(N1CCCN(C3CC3)CC1)c1ccccc1N2 is lower in melting point: 189 °C for the first, 141 to 143 °C for the second.

First: CN1C(=O)C2(COc3cc4c(cc32)OCCO4)c2c(NC(=O)C3CCCC3)cccc21 (stereo not given)
Second: Cn1ncc(NCCN2CCN(c3cccc4c3OCCO4)CC2)cc1=O
The melting point of the first is higher: 196 to 198 °C for the first, 188 to 190 °C for the second.

First: CCOC(=O)C(CBr)=NOC(=O)c1ccc(Cl)cc1
Second: CC(=O)ON=C(N)c1cccc(OC(C)=O)c1
The melting point of the first is lower: 82 to 84.5 °C for the first, 128 °C for the second.

First: COc1cccc(-c2nc(-c3ccoc3)n[nH]2)c1
Second: COc1cccc(C(=O)Nc2nc(C)c(C(=O)NCc3ccccc3)s2)c1
The melting point of the first is higher: 169 to 171 °C for the first, 75 to 77 °C for the second.

First: O=C(O)CCCN(C(=O)c1ccccc1O)C(c1ccccc1)c1ccccc1
Second: C[C@@H]1CC[C@@H](C(C)(C)c2ccccc2)[C@@H](Oc2cn(C(c3ccccc3)c3ccccc3)c(=O)o2)C1
The melting point of the first is higher: 162 to 163 °C for the first, 118 to 120 °C for the second.

First: COc1c(C#N)c(C#N)c(OC)c2ccccc12
Second: COc1ccc(CNc2cc(OC)c(OC)c(OC)c2)cc1
The melting point of the first is higher: 190 °C for the first, 77 to 78 °C for the second.

Compared with N#CC=C1CCN(c2ccc(N3CC(CNC(=O)C4CCCN4)OC3=O)cc2F)CC1 (stereo not given), CNC(=O)[C@H]1CN(c2ccc3c(c2)sc(=O)n3C(C)C)C(=O)O1 is higher in melting point: 155 °C for the first, 172 to 174 °C for the second.

Compared with CCN(CC)CCNc1nc2cccnc2n(-c2ccc(OC)cc2)c1=O, CCCCNC(=O)c1ccc(-c2ccc3nnn(Cc4ccc5ncccc5c4)c3n2)cc1F is lower in melting point: 167 to 168 °C for the first, 100 to 102 °C for the second.

Compared with CC1=CC(O)C(OC(=O)c2ccco2)C(C)(C)CC1=O (stereo not given), CCOC(=O)c1cnc2n(c1=O)C(C)CCC2=NNC(=O)c1ccccc1 (stereo not given) is higher in melting point: 102 to 104 °C for the first, 209 to 210 °C for the second.

Compared with CCCCCCCC(=O)c1ccc(CCI)cc1, CCCCCCCCCCCCCCCCCC(=O)c1ccc(O)c(C(=O)OC(C)C)c1 is higher in melting point: 36.5 °C for the first, 72 to 73 °C for the second.

First: NC(=O)C1CCN(CCO)CC1
Second: CC(C)(C)OC(=O)NCC1(CC(=O)O)CCCCC1
The melting point of the first is higher: 141 to 142 °C for the first, 109 to 111 °C for the second.

First: O=C1CCSC(c2ccccc2Cl)c2cc([N+](=O)[O-])ccc2N1 (stereo not given)
Second: CC1(c2ccccc2)C(=O)Nc2cc(Cl)c(Cl)cc2C1=O (stereo not given)
The melting point of the first is higher: 285 °C for the first, 213 to 214 °C for the second.

Compared with CC(=O)N(C(=O)N1CC(c2ccc(Cl)cc2)C(c2ccc(Cl)cc2)=N1)c1ccc(C(F)(F)F)cc1 (stereo not given), O=C(Cn1c(-c2ccc(Cl)cc2)nc2cccnc21)N1CCN(c2cccc(C(F)(F)F)c2)CC1 is higher in melting point: 166 to 168 °C for the first, 185 to 186 °C for the second.

First: CC(C)c1ccc(-n2ccn(-c3cccc(C(=O)O)c3)c2=O)cc1
Second: CC1CC(=O)N(c2ccccc2)c2cc(Cl)ccc2N1C (stereo not given)
The melting point of the first is higher: 283 to 285 °C for the first, 113 to 114 °C for the second.

Compared with CN1Sc2cc3c(cc2CC1=O)CCCC3, CN1C(=O)CCC2(C)c3ccc(Sc4ccc5ccccc5n4)cc3CCC12 (single isomer, unassigned; (+)) is lower in melting point: 202 to 203 °C for the first, 175 to 177 °C for the second.

First: CC(C)(C)C(Cl)=NNc1cc(Cl)ccc1Cl
Second: Cc1sc(N)c(C(=O)c2cccc(C(F)(F)F)c2)c1C
The melting point of the first is lower: 50 to 51 °C for the first, 103 to 105 °C for the second.

Compared with C=C1c2cc(F)ccc2OC12CCN(C(C)=O)CC2, CCN(CC)C1CCN(c2cccc(-c3cnn4c(N)c(-c5ccc(F)cc5)c(C)nc34)c2)CC1 is higher in melting point: 114 to 116 °C for the first, 208 to 210 °C for the second.

Compared with C[C@@H](CNC(=O)COC(=O)c1cc(S(N)(=O)=O)c(Cl)cc1NCc1ccco1)O[N+](=O)[O-], OCCOc1nc2ncnc(NCc3ccco3)c2[nH]1 is higher in melting point: 125 to 138 °C for the first, 182 to 184 °C for the second.

Compared with CC(C)[C@@H](C(=O)NCCCC(c1ccc(F)cc1)c1ccc(F)cc1)N(C)C1CCCCC1, CC(C)(C)c1ccc(CC[C@H](O)CCCC2CCCCC2)cc1NC(=O)CC1c2ccccc2Oc2ccccc21 is higher in melting point: 82 to 86 °C for the first, 128 to 129 °C for the second.

First: COC(=O)c1ccc(CCN(C)c2cn([C@H]3CCc4c(F)cc(F)cc4C3)c(=S)[nH]2)cc1
Second: CCCOc1cc(-c2ccc3c(c2)C=C(C(=O)Nc2ccc(CN(C)C4CCOCC4)cc2)CCS3(=O)=O)ccc1C#N
The melting point of the first is lower: 159 to 160 °C for the first, 201 to 203 °C for the second.

First: COc1cnc(CSc2nc3cc4c(cc3[nH]2)OC(F)(F)O4)cc1OC
Second: Cc1ccnc(CSc2nc(C)cc(=O)[nH]2)c1
The melting point of the first is higher: 189 to 191 °C for the first, 157 to 158 °C for the second.

Compared with CNC(=O)Oc1cnn(C(C)C)c1, C#CCN(C)C(=O)NC is higher in melting point: 40 °C for the first, 68 to 69 °C for the second.

First: CC(C)c1ccccc1N/C(S)=C(\C#N)C(=O)Nc1ccc(-c2ncn(-c3ccc(OC(F)(F)F)cc3)n2)cc1
Second: CCOC(=O)CNC(=O)Nc1ccc(C(=O)/C=C/c2ccc(-c3cccs3)cc2)cc1
The melting point of the first is lower: 159 to 162 °C for the first, 209 to 212 °C for the second.

Compared with ClCCc1nc2c(ccc3ccccc32)o1, O=c1cc(CO)nc2ccn(-c3ccccc3)n12 is higher in melting point: 80 to 82 °C for the first, 241 to 242 °C for the second.

First: N#Cc1ccsc1C1=CC(=O)Nc2cc(-c3ccccc3F)ccc2N1
Second: O=[N+]([O-])c1cc(C(F)(F)F)ccc1NCCN1CCN(C(c2ccccc2)c2ccccc2)CC1
The melting point of the first is higher: 238 to 240 °C for the first, 152 °C for the second.

Compared with C=C(OCC)c1c(C)nc(C)nc1NCc1ccc(Br)cc1, CCOC(=O)c1ccc(C(F)(F)F)c(N(C)C(C)=O)n1 is higher in melting point: 111 to 113 °C for the first, 145 to 146 °C for the second.

First: N#Cc1c(Br)c(Br)n(C#N)c1Br
Second: Cc1cnn(-c2cc(N)c(Cl)cc2Cl)c(=O)c1Br
The melting point of the first is lower: 195 to 198 °C for the first, 211 °C for the second.

First: [N-]=[N+]=N[C@]1(C(=O)O)[C@H]2[C@@H](C[C@H]1O)[C@@H]2C(=O)O
Second: NC(P(=O)(O)O)P(=O)(O)O
The melting point of the first is lower: 124 to 128 °C for the first, 255 to 265 °C for the second.

First: CS(=O)(=O)c1ccc(C#CCF)cc1
Second: CC(C)(C)[Si](C)(C)OCCCC(=O)c1cc(-c2ccc(S(C)(=O)=O)cc2)n(C2CCCCC2)n1
The melting point of the first is lower: 97 to 99 °C for the first, 131 to 133 °C for the second.

First: CC(=O)OC1CCC2C3CCC4CC(=O)CC(C)C4(C)C3CCC12C (stereo not given)
Second: C[C@@H]1OC(=O)[C@@H](NC(=O)OC(C)(C)C)COC[C@H](Cc2ccccc2)[C@H]1OCCC(=O)N(C)C
The melting point of the first is higher: 179 to 180 °C for the first, 142 to 143 °C for the second.

First: CC(C)(c1ccc(OC#N)cc1)c1ccc(OC#N)cc1
Second: O=c1[nH]c2sc3ccc(I)cc3c2[nH]c1=O
The melting point of the first is lower: 82 °C for the first, > 300 °C for the second.
